Measurements published in US20060263802A1 (priority 2003, published 2006).

Assays:
Type in all cases: binding
[1] = tested on: human monoclonal antibody CRJB
[2] = tested on: human monoclonal antibody CR57
[3] = tested on: human monoclonal antibody CRJA
[4] = tested on: human monoclonal antibody CRJB; remark: listed apart in the source
[5] = tested on: human monoclonal antibody CR57; remark: listed apart in the source
[6] = tested on: human monoclonal antibody CRJA; remark: listed apart in the source

| Sequence | Binding of CRJB to linear peptide (PEPSCAN-ELISA signal) [1] | Binding of CR57 to linear peptide (PEPSCAN-ELISA signal) [2] | Binding of CRJA to linear peptide (PEPSCAN-ELISA signal) [3] | Binding of CRJB (10 μg/ml) to looped/cyclic peptide (PEPSCAN-ELISA signal) [4] | Binding of CR57 (10 μg/ml) to looped/cyclic peptide (PEPSCAN-ELISA signal) [5] | Binding of CRJA (10 μg/ml) to looped/cyclic peptide (PEPSCAN-ELISA signal) [6] | Binding of human monoclonal antibody CRJB to linear peptide (PEPSCAN-ELISA signal) [1] | Binding of human monoclonal antibody CR57 to linear peptide (PEPSCAN-ELISA signal) [2] | Binding of human monoclonal antibody CRJA to linear peptide (PEPSCAN-ELISA signal) [3] | Binding of CRJB to looped/cyclic peptide (PEPSCAN-ELISA signal) [4] | Binding of CR57 to looped/cyclic peptide (PEPSCAN-ELISA signal) [5] | Binding of CRJA to looped/cyclic peptide (PEPSCAN-ELISA signal) [6] | Binding of CRJB (10 μg/ml) to looped/cyclic peptide (PEPSCAN-ELISA) [4] | Binding of CR57 (10 μg/ml) to looped/cyclic peptide (PEPSCAN-ELISA) [5] | Binding of CRJA (10 μg/ml) to looped/cyclic peptide (PEPSCAN-ELISA) [6] |
| --- | --- | --- | --- | --- | --- | --- | --- | --- | --- | --- | --- | --- | --- | --- | --- |
| TYCSTNHDYTIWMPE | 107 | 96 | 87 | 93 | 104 | 97 | – | – | – | – | – | – | – | – | – |
| NFVGYVTTTFKRKHF | 107 | 65 | 88 | 98 | 92 | 83 | – | – | – | – | – | – | – | – | – |
| FVEVHLPDVHNQVSG | – | – | – | – | – | – | 143 | 92 | 93 | 101 | 150 | 103 | – | – | – |
| KSVRTWNEILPSKGC | 125 | 115 | 90 | – | – | – | – | – | – | – | – | – | 104 | 148 | 110 |
| TTKSVSFRRLSHLRK | 118 | 66 | 94 | – | – | – | – | – | – | – | – | – | 72 | 92 | 97 |
| LRVGGRCHPHVNGVF | 143 | 104 | 104 | – | – | – | – | – | – | – | – | – | 105 | 99 | 96 |
| KLGPWSPIDIHHLSC | 105 | 72 | 72 | 65 | 97 | 85 | – | – | – | – | – | – | – | – | – |
| PSKGCLRVGGRCHPH | 138 | 69 | 78 | – | – | – | – | – | – | – | – | – | 99 | 92 | 71 |
| DVHNQVSGVDLGLPN | – | – | – | – | – | – | 133 | 117 | 124 | 113 | 120 | 99 | – | – | – |
| QSSLLQQHMELLESS | 114 | 82 | 98 | – | – | – | – | – | – | – | – | – | 85 | 97 | 99 |
| ETCGFVDERGLYKSL | 120 | 64 | 85 | – | – | – | – | – | – | – | – | – | 78 | 90 | 75 |
